The source of these data is ChEMBL document CHEMBL1201862, “PubChem BioAssay data set” (2004).

Some test systems named below: XF498; KM-20L2; SNB-78; DLD-1; DMS-273; M19-MEL; DMS-114; HOP-18; RXF 631.
Assay in all cases: growth of human tumour cells (NCI), 48 h

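Assay format: 96-well plates, 48-hour exposure. GI50 = concentration required for 50% inhibition of growth.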 The source made the active and inactive calls. Rule as the data show it: active = GI50 up to about 1.1 µM and inactive = higher.

Consider `COc1cc2oc(-c3ccc(O)cc3)cc(=O)c2c(O)c1C1OC(CO)C(O)C(O)C1O` (configuration not stated), for which the GI50 with XF498 is > 100 µM (inactive); in the assay with KM-20L2 it was > 100 µM (inactive); in the assay with SNB-78, > 100 µM (inactive); in the assay on DLD-1, > 100 µM (inactive); in the assay with DMS-273, 62.4 µM (inactive); in the assay with M19-MEL, > 100 µM (inactive). Moreover, the GI50 in the assay with DMS-114 and with HOP-18 was > 100 µM (inactive) each time.

For `COc1ccc(Nc2nc3ccccc3nc2-c2cccs2)cc1`, the GI50 in the assay on XF498 is 78.2 µM (inactive); in the assay on KM-20L2, 60 µM (inactive); with SNB-78, 39.5 µM (inactive); in the assay on DLD-1, > 100 µM (inactive); in the assay on DMS-273 it was > 100 µM (inactive); in the assay with DMS-114, 92.9 µM (inactive). For the same compound, in the assay on HOP-18, the GI50 was > 100 µM (inactive).

For the compound `BrCC[N+]12CCCN1CCC2`, the GI50 in the assay with KM-20L2 was 20.6 µM (inactive); in the assay on SNB-78, 16.2 µM (inactive); in the assay on DLD-1 it was 4.38 µM (inactive); in the assay with RXF 631 it was 21.1 µM (inactive); with DMS-273 it was 18.7 µM (inactive); in the assay with M19-MEL, 16.9 µM (inactive). Also, the GI50 in the assay on HOP-18 was 8.73 µM (inactive).

Consider `O=C(/C(=C/c1ccc(O)cc1)c1ccccc1)c1ccccc1`, for which the GI50 was 24 µM (inactive) in the assay with SNB-78; 15.9 µM (inactive) in the assay on DLD-1; 15.3 µM (inactive) in the assay with RXF 631; 18.4 µM (inactive) with M19-MEL; 11.5 µM (inactive) in the assay with DMS-114; 18.8 µM (inactive) in the assay on HOP-18.

`CCCCCCCCCC/C=C/C=O`: the GI50 with XF498, in the assay on KM-20L2, in the assay with SNB-78, in the assay on DLD-1, in the assay with DMS-273 and in the assay on M19-MEL was > 100 µM (inactive) in each case. The GI50 in the assay on DMS-114 and in the assay on HOP-18 was > 100 µM (inactive) in each case.

For `N#CCC(=O)N/N=C1/C(=O)N(c2ccc(Cl)cc2)C(=O)C(=O)C1c1nc2ccccc2s1` (configuration not stated), the GI50 with XF498 was > 100 µM (inactive); in the assay on KM-20L2, > 100 µM (inactive); in the assay with SNB-78, > 100 µM (inactive); with DLD-1, > 100 µM (inactive); in the assay on DMS-273, > 100 µM (inactive); in the assay with M19-MEL, 40.7 µM (inactive). Besides, in the assay with DMS-114, the GI50 was > 100 µM (inactive).

In the case of `O=C(O)CCC(=O)N1C/C(=C\c2ccccc2)C(=O)/C(=C/c2ccccc2)C1`, the GI50 was 2.7 µM (inactive) in the assay on XF498; 2.92 µM (inactive) in the assay on KM-20L2; 7.24 µM (inactive) with SNB-78; 2.32 µM (inactive) with DLD-1; 3.66 µM (inactive) with RXF 631; 2.16 µM (inactive) in the assay on DMS-273. For the same compound, the GI50 in the assay on M19-MEL is 1.75 µM (inactive); in the assay on DMS-114, 2.18 µM (inactive); with HOP-18, 5.55 µM (inactive).

As to `OCc1ccccc1C1CSCSC1`, the GI50 in the assay on XF498, in the assay with SNB-78, in the assay with DLD-1, with DMS-273, in the assay on M19-MEL and in the assay with DMS-114 was > 100 µM (inactive) throughout.

With `C1CCC(OCc2nnn3c2CCC3)OC1` (configuration not stated), the GI50 in the assay on XF498 is > 100 µM (inactive); in the assay with KM-20L2, > 100 µM (inactive); in the assay with SNB-78, > 100 µM (inactive); in the assay on DLD-1, > 100 µM (inactive); in the assay on M19-MEL, > 100 µM (inactive); with HOP-18 it was < 0.01 µM (active).

`Cc1ccc(C2NC(=O)c3ccccc3N2)s1` (configuration not stated): the GI50 was 3.21 µM (inactive) with XF498; 4.55 µM (inactive) in the assay with KM-20L2; 33.2 µM (inactive) with SNB-78; 5.02 µM (inactive) in the assay on DLD-1; 4.25 µM (inactive) in the assay on DMS-273; 6.12 µM (inactive) with M19-MEL. Moreover, the GI50 in the assay on DMS-114 is 5.21 µM (inactive).

Take `N/C(S)=N/N=C/c1ccc(O)cn1`: the GI50 in the assay with XF498 is 12.4 µM (inactive); with DLD-1 it was 21.4 µM (inactive); in the assay with RXF 631 it was 31.2 µM (inactive); in the assay on DMS-273, 3.75 µM (inactive); in the assay on M19-MEL, 11.1 µM (inactive); with HOP-18 it was 27.1 µM (inactive).

Turning to `Nc1c(/N=N/c2ccc(-c3ccc(/N=N/c4c(O)ccc5cc(S(=O)(=O)O)cc(S(=O)(=O)O)c45)cc3)cc2)c(S(=O)(=O)O)cc2cc(S(=O)(=O)O)c(/N=N/c3ccccc3)c(O)c12`, the GI50 in the assay with XF498 is > 67.6 µM (inactive); in the assay with SNB-78 it was > 84.3 µM (inactive); in the assay with DLD-1, > 100 µM (inactive); in the assay with DMS-273, > 86.9 µM (inactive); in the assay on M19-MEL it was > 100 µM (inactive); in the assay with DMS-114 it was > 100 µM (inactive). Besides, the GI50 in the assay on HOP-18 was > 100 µM (inactive).

As for `C/C=C/c1cc2c(c(=O)o1)C(=O)[C@@H](O)[C@H](C)O2`, the GI50 in the assay with KM-20L2 is 16.1 µM (inactive); in the assay on SNB-78, 18.8 µM (inactive); with DLD-1, 6.28 µM (inactive); in the assay on DMS-273, 16 µM (inactive); with M19-MEL it was 13.4 µM (inactive); in the assay with DMS-114 it was 6.75 µM (inactive). Further, the GI50 with HOP-18 is 17.5 µM (inactive).

For the compound `CC1=C(C(=O)Nc2ccccc2)C(c2ccc3c(c2)OCO3)C(C(=O)Nc2ccccc2)=C(C)N1`, the GI50 with XF498 was 24.2 µM (inactive); in the assay on KM-20L2, > 10 µM (inactive); with DLD-1, 36.8 µM (inactive); in the assay on RXF 631, 28.7 µM (inactive); in the assay with DMS-273, 26.7 µM (inactive); in the assay with M19-MEL, 40.4 µM (inactive). Also, the GI50 in the assay with DMS-114 was 26.2 µM (inactive); in the assay on HOP-18, 41.5 µM (inactive).

As to `CCOC(=O)C1(Cc2ccc3ccccc3c2)CCCCC(=O)N1` (configuration not stated), the GI50 with XF498 is 30.4 µM (inactive); in the assay on KM-20L2 it was 30.5 µM (inactive); with SNB-78 it was 52.7 µM (inactive); in the assay with DLD-1, 25.6 µM (inactive); in the assay on DMS-273, 13.5 µM (inactive); in the assay with M19-MEL, 48.6 µM (inactive). In addition, the GI50 in the assay on DMS-114 was 18.6 µM (inactive); with HOP-18, > 100 µM (inactive).
